Reference: PMC8273887 (Journal of Medicinal Chemistry, 2021)
Entries after “also recorded” stand apart in the source; their conditions may differ. Each block holds one substance with its values, some of them ahead of it. Bridge positions count the residues as written; N and C are the ends. Ends that are not written are not given here.

Key:
[1] = molecular target: T1, CXCR4 (Homo sapiens, UniProt P61073); assay: Inositol 1 phosphate (IP1) accumulation assay (HTRF) in COS-7 cells transfected with CXCR4; type: cell-based; conditions: COS-7 transiently co-transfected with CXCR4-eYFP and chimeric GαΔ6qi4myr; stimulation 1 h, 37 °C, triplicate; HTRF; n ≥ 2 independent experiments; read-out: EC50 (CXCR4 activation, IP1 accumulation)
T1 construct: expressed in transfected cells; host or cells: COS-7 (African green monkey), transient co-transfection with GαΔ6qi4myr
T1 sequence (P61073 whole entry): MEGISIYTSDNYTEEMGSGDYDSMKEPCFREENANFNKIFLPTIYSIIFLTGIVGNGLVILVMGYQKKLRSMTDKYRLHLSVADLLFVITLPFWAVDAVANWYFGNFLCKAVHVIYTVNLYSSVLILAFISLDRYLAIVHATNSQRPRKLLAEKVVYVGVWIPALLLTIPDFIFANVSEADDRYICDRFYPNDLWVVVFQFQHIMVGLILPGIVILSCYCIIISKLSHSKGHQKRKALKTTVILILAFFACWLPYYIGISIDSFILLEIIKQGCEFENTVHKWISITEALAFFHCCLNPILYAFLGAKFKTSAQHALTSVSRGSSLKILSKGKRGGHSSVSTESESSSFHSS
Excerpt: CXCR4 is a member of the G protein-coupled receptor (GPCR) family[58] and proposed as a target receptor for TFF3 to mediate wound healing.[30],[39] We therefore pharmacologically characterized TFF3(C^57Acm) and TFF3 homodimer at CXCR4. We used a chimeric Gαiq protein to switch the pathway to the Gαq signaling, which leads to the activation of the phospholipase and allows measurement of CXCR4 activation through the production of inositol 1 phosphate (IP1).[61]−[63] We measured IP1 accumulation upon stimulation with TFF3(C^57Acm) and TFF3 homodimer in fibroblast-like COS-7 cells transiently transfected with CXCR4.[58] This is a competitive immunoassay, based on the HTRF technology, where native IP1 produced by cells compete with labeled IP1 (acceptor) for binding to anti-IP1-cryptate (donor). The specific signal (i.e., Förster resonance energy transfer, FRET) is inversely proportional to the concentration of IP1 in the sample. The calculation of the fluorescence ratio eliminates possible medium interferences.[64]
COS-7 cells (fibroblast-like cells from African green monkey) were transiently co-transfected with the CXCR4 C-terminally fused to eYFP in pVitro2 vector and the untagged chimeric G protein GαΔ6qi4myr in pcDNA3.1 plasmid using Metafectene Pro according to manufacturer’s protocol. The cells were cultured in DMEM with higher glucose and supplemented with 10% FCS without any antibiotics at 37 °C and 5% CO2 in 95% humidity. Cisbio IP-One Gq assay kit was used according to previous description with minor modifications to measure activity.[80] Briefly, a standard curve was prepared in HBSS (Hanks’ balanced salt solution) with 20 mM LiCl to determine the linear range of the assay and 10 000 cells/well were cultured overnight in a 384-well flat white plate (Greiner Bio-one GmbH, Frickenhausen, Germany). TFF3 and its homodimer as well as CXCL12 were diluted in HBSS containing 20 mM LiCl. Stimulation was carried out for 1 h in triplicate at 37 °C. Subsequently, 3 μL of IP1-d2 and 3 μL of Ab-cryptate in lysis buffer were added to the wells and incubated on a tumbler for 60 min at 25 °C. Fluorescence was then measured at 620 and 665 nm and the HTRF (homogeneous time-resolved fluorescence) ratio (665/620 nm) was calculated. Data analysis was performed with Prism (version 7, GraphPad, La Jolla). Tested compounds were normalized to CXCL12 wild type, with the highest HTRF ratio set to 0% and the lowest HTRF ratio set to 100% response. […] The final concentration range of 10^–12 to 10^–5 M to CXCL12 and 1 or 10 μM to TFF3(C^57Acm) and TFF3 homodimer was achieved by adding the compounds from a threefold concentrated stock solution.

[2] = tested on: pepsin; assay: simulated gastric fluid (SGF, containing pepsin, pH 1.3); conditions: porcine, 37 °C, up to 24 h
[3] = tested on: porcine pancreatin; assay: simulated intestinal fluid (SIF, containing pancreatic enzymes, pH 6.8); conditions: 37 °C, up to 24 h
[4] = tested on: trypsin; assay: trypsin
[5] = Stability in simulated gastric fluid (SGF); type: in vitro ADME, porcine
Method: (§1) We exposed TFF3(C^57Acm) and TFF3 homodimer to simulated gastric fluid (SGF, containing pepsin, pH 1.3) and simulated intestinal fluid (SIF, containing pancreatic enzymes, pH 6.8), and monitored the mixture over 24 h by analytical RP-HPLC and MS. The N- and C-termini of TFF3 and its homodimer were readily truncated in both SGF and SIF (Figure 4A,B). In SGF, TFF3 was cleaved at Leu^6/Ser^7 followed by cleavage at Glu^54/Ala^55 (t1/2 < 5 min). In SIF, TFF3 was cleaved first at Thr^58/Phe^59 followed by cleavage at Leu^6/Ser^7, Glu^56/Cys^57, and Ala^55/Glu^56 (t1/2 < 5 min). TFF3 homodimer, in both SGF (t1/2 ∼ 40 min) and SIF (t1/2 < 5 min), was first broken down to monomeric TFF3 through simultaneous cleavage at Leu^6 and Glu^54 or Ala^55, eventually leading to the same metabolites as TFF3 (Figure 4B).
(§2) Simulated gastric fluid (SGF) was prepared by dissolving 20 mg of NaCl and 8 mg of pepsin in 70 μL of concentrated HCl (32%), and the volume was diluted to 10 mL with Milli-Q water (pH 1.3).[76],[77] Simulated intestinal fluid (SIF) was prepared by dissolving 68 mg of KH2PO4 in 500 μL of Milli-Q water followed by the addition of 800 μL of 0.2 M NaOH and 100 mg of porcine pancreatin, and the volume was adjusted to 10 mL with Milli-Q water (pH 6.8).[76],[77] Peptide stock solution (1 mM; 15 μL) was added to SGF (285 μL) or SIF (285 μL) and incubated at 37 °C. Samples (30 μL) from SGF and SIF were taken at 0, 5, 15, and 30 min and 1, 2, 4, 8, and 24 h timepoints and subsequently quenched with 30 μL of 0.2 M Na2CO3 (SGF) or 30 μL of 5% aqueous TFA (SIF). The samples were analyzed by analytical RP-HPLC (30 μL) and/or LC-MS (20 μL). The amount of peptide remaining was determined by measuring the peak area and expressing it as a % of the peak area at time 0. Peptide half-life (t1/2) was determined from the peptide degradation profiles using an exponential one-phase decay fit in Prism (version 7, GraphPad, La Jolla). LC-MS analysis was performed in a Q-Star Pulsar mass spectrometer (SCIEX, Ontario, Canada), and the raw data spectra were processed using the peptide reconstruction tool in the BioAnalyst software to identify the mass of the metabolites. The stability of the disulfide bonds was assessed through incubation of the peptides (10 μM) with 10 equiv of reduced glutathione (GSH; 100 μM) in sodium phosphate (50 mM) buffer at pH 7.2. Samples were taken at timepoints 0, 4, 8, and 24 h, quenched by adding 10% TFA, and analyzed by analytical RP-HPLC using an analytical C3 column (Agilent Zorbax SB-C3, 5 μm, 2.1 mm × 250 mm, 300 Å).

[6] = Stability in simulated intestinal fluid (SIF); type: in vitro ADME; conditions: pig, simulated intestinal fluid (SIF) with porcine pancreatin
Method: as §1, §2

[7] = tested on: SH-SY5Y cells; assay: Antiapoptotic assay (etoposide-induced cell death, caspase-3/7 activity); type: cell-based, human; conditions: etoposide 10 μM and peptide 10 μM added at the same time, caspase-3/7 activity after 6 h, n ≥ 3 independent experiments
Method: (A) Cell death was induced with etoposide (10 μM), and cells were treated with 10 μM of TFF3. Etoposide and TFF3 were added at the same time. Caspase-3/7 activity was measured after 6 h. […] Z-DEVD-FMK (50 μM; caspase-3 inhibitor) was used as the positive control. E: etoposide, E + C3I: etoposide + caspase-3 inhibitor. One-way analysis of variance (ANOVA) followed by Dunnett correction was performed to assess differences between treated cells and etoposide only. *p < 0.05, **p < 0.01.
SH-SY5Y cells were seeded (13–15 × 10^3 cells/well) in 96-well microplates in DMEM with 10% (v/v) fetal calf serum (FCS; Gibco), 2 mM L-glutamine, and 100 units/mL penicillin/streptomycin. The media was replaced with low riboflavin, complete Ham’s F12 medium with 10% (v/v) fetal calf serum, 2 mM L-glutamine, and 100 units/mL penicillin/streptomycin before the live-cell imaging. Cells were treated with the etoposide or the caspase-3 inhibitor or TFF3(C^57Acm) or TFF3 homodimer in the presence of IncuCyte caspase-3/7 green apoptosis reagent. Data were acquired using an IncuCyte ZOOM instrument with standard scan type setting (4 images per well) every 2 h for 48 h.

Substance: CXCL12: natural CXCR4 ligand; recombinant human CXCL12 from E. coli with additional N-terminal methionine; positive control [reference compound]
EC50 [1]: 5.9 nM

Substance: EEYVGLSANQCAVPAKDRVDCGYPHVTPKECNNRGCCFDSRIPGVPWCFKPLQEAEC(Acm)TF
cleaved bond [2]: Leu6-Ser7, first_seen; also recorded: Glu54-Ala55
cleaved bond [3]: Thr58-Phe59, first_seen; also recorded: Leu6-Ser7; also recorded: Glu56-Cys57; also recorded: Ala55-Glu56

Substance: SANQCAVPAKDRVDCGYPHVTPKECNNRGCCFDSRIPGVPWCFKPLQE-NH2 (disulfide 5-31, 15-30, 25-42) [TFF3_7-54]
stability in SGF over 24 h (in words) ([5]; SGF with pepsin, pH 1.3, 37 °C, 24 h, RP-HPLC and MS): remained stable
half-life at 50 μM ([5]; simulated gastric fluid (SGF) with pepsin, pH 1.3, 15 μL of 1 mM stock in 285 μL, 37 °C, monitored over 24 h, RP-HPLC/LC-MS, read-out: half-life in SGF): > 1440 min
half-life at 50 μM ([6]; pH 6.8, 15 μL of 1 mM stock in 285 μL, 37 °C, monitored over 24 h, RP-HPLC/LC-MS, read-out: half-life in SIF): > 1440 min
metabolised at 24 h, 50 μM ([6]; pH 6.8, 37 °C, 24 h, RP-HPLC/MS, read-out: degradation in SIF within 24 h): ~25%
reduction of etoposide-induced cell death (caspase-3/7 active objects) [7]: active in the anti-apoptosis assay, equivalent to TFF3 and TFF3 homodimer

Continued, in another order:

not cleaved [2]: stable in SGF for 24 h
Substance: QCAVPAKDRVDCGYPHVTPKECNNRGCCFDSRIPGVPWCFK
cleaved bond [4]: cleavages at Lys^16, Arg^18, and Arg^41; also recorded: Arg41-Ile42
fragment found [4]: Glu^30-Arg^34; also recorded: Ile^42-Lys^50

not cleaved [2]: stable in SGF with a half-life over 24 h
Substance: SANQCAVPAKDRVDCGYPHVTPKECNNRGCCFDSRIPGVPWCFKPLQE

not cleaved [3]: remained stable even after 24 h
Substance: S^7ANQCAVPAKDRVDCGYPHVTPKECNNRGCCFDSRIPGVPWCFKPLQEA^55
